For ten compounds, EC50 and IC50 results are on record in patent US10364256B2 (GlaxoSmithKline Intellectual Property Development Limited, priority 2015, dated 2019).

Structures are written as SMILES.

For test [1], the system named is NQO1 specific enzyme activity in BEAS-2B cells (marker for NRF2 activation). Kind of test: BEAS-2B NQO1 MTT Assay. In kind it is cell-based. The following applies: Homo sapiens, compound incubated 48 hours, read-out: EC50 (NQO1 specific enzyme activity induction). The gist of the method: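 NQO1 specific activity induction is derived from the rate of MTT reduction (ΔOD/min, 570 nm, 30 min kinetic read) in crude lysates of BEAS-2B cells exposed to compound for 48 h. A 3-parameter fit gives EC50, reported as pEC50; part of each lysate goes to Cell Titer Glo.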

Test [2] has as its target T1, Keap1 Kelch domain (321-609) / TAMRA-labeled 16mer NRF2 peptide (ETGE motif) (Homo sapiens, UniProt Q14145).
T1 construct: the Kelch domain (321-609) of Keap1 is used
Description: NRF2-Keap1 FP Assay (Keap1 Kelch fluorescence polarization). In kind it is binding. The conditions noted are these: 20 nM Keap1 (321-609), 8 nM Tamra labeled peptide. The gist of the method: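 Compound dilutions (3-fold) were incubated 1 hr at room temperature with 20 nM Keap1 Kelch (321-609) and 8 nM TAMRA-labeled ETGE 16mer peptide. Buffer was 50 mM Tris pH 8.0, 100 mM NaCl, 5 mM MgCl2, 1 mM DTT, 2 mM CHAPS, 0.005% BSA. Fluorescence polarization (mP) was normalized to controls and fitted with a four-parameter equation to give pIC50.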
In general terms: In fluorescence polarisation assays a small probe gives low polarisation when free and higher when bound to something large.

T1 sequence (Q14145 321-609): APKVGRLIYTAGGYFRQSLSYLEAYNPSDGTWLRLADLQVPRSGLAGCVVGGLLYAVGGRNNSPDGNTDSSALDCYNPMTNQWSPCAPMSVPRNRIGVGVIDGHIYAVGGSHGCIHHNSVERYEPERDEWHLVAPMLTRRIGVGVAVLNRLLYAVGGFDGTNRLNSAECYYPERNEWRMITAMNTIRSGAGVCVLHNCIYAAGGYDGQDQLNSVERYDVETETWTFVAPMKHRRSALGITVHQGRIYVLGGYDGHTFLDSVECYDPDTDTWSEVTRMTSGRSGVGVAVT

In general, EC50 refers to the concentration needed to bring the measured effect to its halfway point. As a reminder, the IC50 is the concentration that inhibits the measured activity by half. Consider `CCC[C@@H]1CO[C@@H](C)CN1C(=O)c1cccc(-c2cccc(-n3ncc(C(=O)O)c3C3CC3)c2)c1F` [Example 45, 5-cyclopropyl-1-(3-{2-fluoro-3-[(2S,5R)-2-methyl-5-propylmorpholine-4-carbonyl]phenyl}phenyl)-1H-pyrazole-4-carboxylic Acid], for which the EC50 in test [1] lay in the range of 100 to 1000 nM. Also, the IC50 in test [2] lay within 10 to 100 nM.

Take `CC1CC(C)CN(C(=O)c2cccc(-c3cccc(-n4ncc(C(=O)O)c4C4CC4)c3)c2F)C1` (centres unmarked) [Example 53, 5-Cyclopropyl-1-[3′-(3,5-dimethyl-piperidine-1-carbonyl)-2′-fluoro-biphenyl-3-yl]-1H-pyrazole-4-carboxylic Acid]: in test [1], the EC50 was in the range of 100 to 1000 nM. In test [2], the IC50 was in the range of 10 to 100 nM.

With `CCC[C@@H]1CCCCN1C(=O)c1cccc(-c2cccc(-n3ncc(C(=O)O)c3C3CC3)c2)c1F` [Example 54e, 5-Cyclopropyl-1-{3-[2-fluoro-3-((2-S)-2-propylpiperidine-1-carbonyl)phenyl]phenyl}-1H-pyrazole-4-carboxylic Acid], in test [1], the EC50 lay in the range of 100 to 1000 nM. In addition, in test [2], the IC50 fell in the range of 100 to 1000 nM.

With `CCC[C@@H]1CCCCN1C(=O)c1cccc(-c2cccc(-n3ncc(C(=O)O)c3CCc3cn(C)nn3)c2)c1F` [Example 55, (R)-1-(2′-Fluoro-3′-(2-propylpiperidine-1-carbonyl)-[1,1′-biphenyl]-3-yl)-5-(2-(1-methyl-1H-1,2,3-triazol-4-yl)ethyl)-1H-pyrazole-4-carboxylic Acid], the EC50 in test [1] is 1000 to 10000 nM. The compound further showed an IC50 in test [2] of 10 to 100 nM.

For the compound `CC(C)Oc1cccc(-c2cccc(-n3ncc(C(=O)O)c3C3CC3c3cn(C)nn3)c2)c1` (centres unmarked) [Example 59, 1-(3′-Isopropoxy-[1,1′-biphenyl]-3-yl)-5-(2-(1-methyl-1H-1,2,3-triazol-4-yl)cyclopropyl)-1H-pyrazole-4-carboxylic Acid], in test [1], the EC50 is 1000 to 10000 nM. This compound showed an IC50 in test [2] of 100 to 1000 nM.

With `CC1(C)CCc2cnn(-c3cccc(-c4cccc(-n5ncc(C(=O)O)c5C5CC5)c4)c3)c21` [Example 63, 5-Cyclopropyl-1-(3′-(6,6-dimethyl-5,6-dihydrocyclopenta[c]pyrazol-1(4H)-yl)-[1,1′-biphenyl]-3-yl)-1H-pyrazole-4-carboxylic Acid], the EC50 in test [1] is 100 to 1000 nM. Further, the IC50 in test [2] was 100 to 1000 nM.

For `CC1(C)CCc2cnn(-c3cccc(-c4cccc(-n5ncc(C(=O)O)c5C(F)(F)F)c4)c3)c21` [Example 250, 1-(3′-(6,6-Dimethyl-5,6-dihydrocyclopenta[c]pyrazol-1(4H)-yl)-[1,1′-biphenyl]-3-yl)-5-(trifluoromethyl)-1H-pyrazole-4-carboxylic Acid], the EC50 in test [1] lay in the range of 100 to 1000 nM. In test [2], this compound displayed an IC50 of 100 to 1000 nM.

As to `C[C@@H]1CN(Cc2cccc(-c3cccc(-n4ncc(C(=O)O)c4[C@@H]4C[C@H]4c4cn(C)nn4)c3)c2)Cc2ccccc2O1` [Example 253], in test [1], the concentration giving a half-maximal response (EC50) was 100 to 1000 nM. Also, the IC50 in test [2] lay in the range of 10 to 100 nM.

Turning to `CCOC[C@@H]1CCCN1C(=O)c1cccc(-c2cccc(-n3ncc(C(=O)O)c3[C@@H]3C[C@H]3c3cn(C)nn3)c2)c1F` [Example 267], in test [1], the EC50 was 100 to 1000 nM. In addition, in test [2], the IC50 was in the range of 10 to 100 nM.

Turning to `CCOC[C@H]1CCCN1C(=O)c1cccc(-c2cccc(-n3ncc(C(=O)O)c3[C@@H]3C[C@H]3c3cn(C)nn3)c2)c1F` [Example 268], in test [1], the EC50 lay within 100 to 1000 nM. In test [2], this compound yielded an IC50 of 10 to 100 nM.
